From US7713994B2 (Wyeth LLC, priority 2005, dated 2010)
pIC50: −log10 of the molar value.

Columns and labels:
LoVo = experiment: Cytotoxicity assay (SRB), LoVo; assay type: cell-based; details: Homo sapiens, LoVo, 72 h, LoVo cells, 3 days, SRB; read-out: In Vitro Cellular Activity IC50 LOVO
Summary of the method: (§1)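 Seeding: BT474 12000, HCT-116 4000, LoVo 6000, MCF-7 6000 cells/well; overnight attachment, 37 °C, 7% CO2. Drug exposure 3 d (BT474 6 d), RPMI 1640 + 5% FBS. Readout: TCA fix, 0.4% SRB, Tris solubilisation, A540.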

BT474 = experiment: Cytotoxicity assay (SRB), BT474; assay type: cell-based; details: Homo sapiens, BT-474, 144 h, BT474 cells, 6 days, SRB; read-out: In Vitro Cellular Activity IC50 BT474
Summary of the method: as §1

cyclin B/CDK1 enzyme = biological target: T1, cyclin B/CDK1 enzyme (Homo sapiens, UniProt P06493); experiment: CDK1 ELISA kinase assay (phospho-Rb ser 795 detection); assay type: biochemical; details: In Vitro Enzyme Assay, cyclin B/CDK1, read-out: CDK1 IC50
T1 construct: purchased New England BioLabs; host or cells: Sf9 insect cells, recombinant baculovirus
Summary of the method: (§2)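 GST-Rb C-terminal fragment coated on plates; partially purified Sf9-expressed cyclin D1/CDK4, cyclin E/CDK2 or cyclin B/CDK1 with 200 μM ATP, pH 7.5 HEPES/MgCl2 buffer, 1 h at 30 °C; screen compound final 10 μg/ml. Phospho-Rb Ser795 detected by antibody ELISA (TMB, A450); % of control, IC50 from background-subtracted inhibition curves.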

cyclin D1/cdk 4 enzyme = biological target: T2, cyclin D1/cdk 4 enzyme (Homo sapiens, UniProt P11802); experiment: CDK4 ELISA kinase assay (phospho-Rb ser 795 detection); assay type: biochemical; details: In Vitro Enzyme Assay, cyclin D1/cdk 4, read-out: CDK4 IC50
T2 construct: made in house; host or cells: Sf9 insect cells, recombinant baculovirus
Summary of the method: as §2

HCT-116 = experiment: Cytotoxicity assay (SRB), HCT-116; assay type: cell-based; details: Homo sapiens, HCT-116, 72 h, HCT116 cells, 3 days, SRB; read-out: In Vitro Cellular Activity IC50 HCT116
Summary of the method: as §1

cyclin E/CDK2 enzyme = biological target: T3, cyclin E/CDK2 enzyme (Homo sapiens, UniProt P24941); experiment: CDK2 ELISA kinase assay (phospho-Rb ser 795 detection); assay type: biochemical; details: In Vitro Enzyme Assay, cyclin E/CDK2, read-out: CDK2 IC50
T3 construct: made in house; host or cells: Sf9 insect cells, recombinant baculovirus
Summary of the method: as §2

MCF-7 = experiment: Cytotoxicity assay (SRB), MCF-7; assay type: cell-based; details: Homo sapiens, MCF7, 72 h, MCF-7 cells, 3 days, SRB; read-out: In Vitro Cellular Activity IC50 MCF-7
Summary of the method: as §1

T2 sequence (P11802 whole entry, species assumed): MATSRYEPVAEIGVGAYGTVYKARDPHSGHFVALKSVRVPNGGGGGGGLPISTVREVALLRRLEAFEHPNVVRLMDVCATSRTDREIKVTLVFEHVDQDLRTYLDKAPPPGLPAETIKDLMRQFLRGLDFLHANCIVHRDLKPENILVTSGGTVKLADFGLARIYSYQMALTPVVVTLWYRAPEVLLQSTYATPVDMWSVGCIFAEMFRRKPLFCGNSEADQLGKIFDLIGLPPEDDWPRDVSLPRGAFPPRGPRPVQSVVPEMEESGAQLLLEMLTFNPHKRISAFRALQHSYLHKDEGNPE
T2 sequence (P24385 whole entry partner, species assumed): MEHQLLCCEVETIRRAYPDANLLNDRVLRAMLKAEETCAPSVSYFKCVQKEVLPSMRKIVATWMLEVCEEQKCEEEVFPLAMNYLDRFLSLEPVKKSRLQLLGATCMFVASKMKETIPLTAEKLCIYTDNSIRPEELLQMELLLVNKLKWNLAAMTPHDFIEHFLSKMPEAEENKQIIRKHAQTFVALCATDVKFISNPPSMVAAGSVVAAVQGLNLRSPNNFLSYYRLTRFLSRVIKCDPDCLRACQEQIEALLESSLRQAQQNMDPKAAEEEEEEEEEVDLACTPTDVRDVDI
T1 sequence (P06493 whole entry): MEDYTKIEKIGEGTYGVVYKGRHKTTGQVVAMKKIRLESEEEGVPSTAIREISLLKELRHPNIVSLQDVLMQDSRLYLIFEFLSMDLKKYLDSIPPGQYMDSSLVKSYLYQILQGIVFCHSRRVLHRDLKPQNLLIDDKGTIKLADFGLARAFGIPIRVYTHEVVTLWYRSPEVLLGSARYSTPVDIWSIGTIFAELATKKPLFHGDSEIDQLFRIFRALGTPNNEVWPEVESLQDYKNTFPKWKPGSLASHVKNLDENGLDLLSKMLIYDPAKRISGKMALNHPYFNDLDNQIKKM
T1 sequence (P14635 whole entry partner): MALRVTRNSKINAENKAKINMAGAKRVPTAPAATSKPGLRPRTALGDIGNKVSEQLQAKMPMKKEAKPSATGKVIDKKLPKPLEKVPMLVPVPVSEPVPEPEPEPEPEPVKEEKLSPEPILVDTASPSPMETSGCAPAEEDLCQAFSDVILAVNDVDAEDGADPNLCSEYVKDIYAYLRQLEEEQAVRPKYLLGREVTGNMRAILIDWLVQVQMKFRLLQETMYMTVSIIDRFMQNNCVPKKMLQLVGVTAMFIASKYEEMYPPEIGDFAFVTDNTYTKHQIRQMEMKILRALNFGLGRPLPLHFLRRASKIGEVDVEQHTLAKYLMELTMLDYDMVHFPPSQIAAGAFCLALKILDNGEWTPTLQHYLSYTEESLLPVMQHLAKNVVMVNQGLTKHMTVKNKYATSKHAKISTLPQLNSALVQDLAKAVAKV

| Compound | pIC50 (LoVo) | pIC50 (BT474) | pIC50 (cyclin B/CDK1 enzyme) | pIC50 (cyclin D1/cdk 4 enzyme) | pIC50 (HCT-116) | pIC50 (cyclin E/CDK2 enzyme) | pIC50 (MCF-7) | melting point |
| --- | --- | --- | --- | --- | --- | --- | --- | --- |
| COC[C@@H]1CCCN1Cc1ccc(N/C=C2\C(=O)NC(=O)c3ccc(-c4ccco4)cc32)cc1 [Example 467, (4Z)-6-(2-Furyl)-4-{[(4-{[(2S)-2-(methoxymethyl)pyrrolidin-1-yl]methyl}phenyl)amino]methylene}isoquinoline-1,3(2H,4H)-dione] | 5.62 | 5.44 | < 4.30 | 6.68 | 5.64 | < 4.30 | 5.72 | 159 to 160 °C |
| C[C@@H]1CN(c2ccc(N/C=C3\C(=O)NC(=O)c4ccc(-c5ccoc5)cc43)nc2)C[C@H](C)N1 [Example 468, (4Z)-4-[({5-[(3R,5S)-3,5-Dimethylpiperazin-1-yl]pyridin-2-yl}amino)methylene]-6-(3-furyl)isoquinoline-1,3(2H,4H)-dione] | 5.80 | 5.68 | < 4.30 | 6.77 | 5.96 | < 4.30 | 5.82 | 230 to 231 °C |
| C[C@@H]1CN(c2ccc(N/C=C3\C(=O)NC(=O)c4ccc(Br)cc43)nc2)C[C@H](C)N1 [Example 469, (4Z)-6-Bromo-4-[({5-[(3R,5S)-3,5-dimethylpiperazin-1-yl]pyridin-2-yl}amino)methylene]isoquinoline-1,3(2H,4H)-dione] | 5.92 | 5.66 | 5.57 | 5.66 | 6.10 | 4.75 | 5.54 | 245 to 246 °C |
| CCC(=O)Nc1cnc(CN/C=C2\C(=O)NC(=O)c3ccc(I)cc32)cc1O [Example 470, N-(4-Hydroxy-6-{[(6-iodo-1,3-dioxo-2,3-dihydro-1H-isoquinolin-4-ylidenemethyl)-amino]-methyl}-pyridin-3-yl)-propionamide] | 4.72 | 5.70 | 5.60 | 7.30 | 4.68 | 6.72 | 4.42 | 210 to 218 °C (dec.) |
| CCCOc1cn(C)c(CN/C=C2\C(=O)NC(=O)c3ccc(I)cc32)cc1=O [Example 471, 6-Iodo-4-{[(1-methyl-4-oxo-5-propoxy-1,4-dihydro-pyridin-2-ylmethyl)-amino]-methylene}-4H-isoquinoline-1,3-dione] | < 4.30 | 4.66 | < 4.30 | 8.15 | < 4.30 | 4.54 | < 4.30 | 176 to 196 °C (dec.) |
| CN1CCN(c2ccc(N/C=C3\C(=O)NC(=O)c4ccc(-c5cccn5C)cc43)cn2)CC1 [Example 474, (4Z)-4-({[6-(4-Methylpiperazin-1-yl)pyridin-3-yl]amino}methylene)-6-(1-methyl-1H-pyrrol-2-yl)isoquinoline-1,3(2H,4H)-dione] | 5.42 | 5.13 | < 4.30 | 5.38 | 5.46 | < 4.30 | 5.40 | 216 to 217 °C |
| CN1CCN(c2ccc(N/C=C3\C(=O)NC(=O)c4ccc(-c5ccoc5)cc43)nn2)CC1 [Example 476, (4Z)-6-(3-Furyl)-4-({[6-(4-methylpiperazin-1-yl)pyridazin-3-yl]amino}methylene)isoquinoline-1,3(2H,4H)-dione] | 5.51 | 5.59 | 4.61 | 6.09 | 5.72 | < 4.30 | 5.35 | 275 to 276 °C |
| CN1CCN(c2ccc(N/C=C3\C(=O)NC(=O)c4ccc(Br)cc43)nn2)CC1 [Example 477, (4Z)-6-Bromo-4-({[6-(4-methylpiperazin-1-yl)pyridazin-3-yl]amino}methylene)isoquinoline-1,3(2H,4H)-dione] | 5.41 | 5.39 | 4.62 | 4.86 | 5.80 | 4.39 | 5.64 | 245 to 246 °C |
| COC[C@@H]1CCCN1Cc1ccc(N/C=C2\C(=O)NC(=O)c3ccc(I)cc32)nc1 [Example 478, (4Z)-6-Iodo-4-{[(5-{[(2S)-2-(methoxymethyl)pyrrolidin-1-yl]methyl}pyridin-2-yl)amino]methylene}isoquinoline-1,3(2H,4H)-dione] | 4.33 | < 4.30 | < 4.30 | 4.75 | 4.62 | < 4.30 | 4.35 | 185 to 186 °C |
| O=C1NC(=O)c2ccc(I)cc2/C1=C/Nc1ccc(CN2CCC(CCO)CC2)cc1 [Example 480, (4Z)-4-{[(4-{[4-(2-Hydroxyethyl)piperidin-1-yl]methyl}phenyl)amino]methylene}-6-iodoisoquinoline-1,3(2H,4H)-dione] | 5.35 | 6.00 | < 4.30 | 6.68 | 5.48 | 4.58 | 5.80 | 223 to 224 °C |
| CCN1CCN(c2ccc(N/C=C3\C(=O)NC(=O)c4ccc(-c5ccoc5)cc43)nc2)CC1 [Example 481, (4Z)-4-({[5-(4-Ethylpiperazin-1-yl)pyridin-2-yl]amino}methylene)-6-(3-furyl)isoquinoline-1,3(2H,4H)-dione] | 6.02 | 6.22 | < 4.30 | 6.72 | 6.06 | < 4.30 | 5.96 | 256 to 257 °C |
| O=C1NC(=O)c2ccc(-c3ccc(F)cc3)cc2/C1=C/Nc1ccc(CN2CCC(CCO)CC2)cc1 [Example 482, (4Z)-6-(4-Fluorophenyl)-4-{[(4-{[4-(2-hydroxyethyl)piperidin-1-yl]methyl}phenyl)amino]methylene}isoquinoline-1,3(2H,4H)-dione] | 5.57 | 5.89 | < 4.30 | 6.92 | 5.60 | < 4.30 | 6.08 | 202 to 203 °C |
| CC(C)N1CCN(c2ccc(N/C=C3\C(=O)NC(=O)c4ccc(-c5ccoc5)cc43)nc2)CC1 [Example 488, (4Z)-6-(3-Furyl)-4-({[5-(4-isopropylpiperazin-1-yl)pyridin-2-yl]amino}methylene)isoquinoline-1,3(2H,4H)-dione] | 5.62 | 6.02 | < 4.30 | 6.37 | 5.50 | < 4.30 | 5.64 | 278 to 279 °C |
| O=C1NC(=O)c2ccc(Br)cc2/C1=C/Nc1ccc(CN2CCC(CCO)CC2)cc1 [Example 489, (4Z)-6-Bromo-4-{[(4-{[4-(2-hydroxyethyl)piperidin-1-yl]methyl}phenyl)amino]methylene}isoquinoline-1,3(2H,4H)-dione] | 5.34 | 5.20 | < 4.30 | 5.89 | 5.39 | < 4.30 | 5.46 | 200 to 201 °C |
| CCCOc1cnc(CN/C=C2\C(=O)NC(=O)c3ccc(-c4ccco4)cc32)cc1O [Example 502, 6-Furan-2-yl-4-{[(4-hydroxy-5-propoxy-pyridin-2-ylmethyl)-amino]-methylene}-4H-isoquinoline-1,3-dione] | 6.02 | 6.16 | 4.69 | > 8.30 | 5.85 | 5.55 | 5.92 | 288 to 290 °C (dec.) |
| CN1CCN(c2cnc(N/C=C3\C(=O)NC(=O)c4ccc(I)cc43)cn2)CC1 [Example 507, (4Z)-6-Iodo-4-({[5-(4-methylpiperazin-1-yl)pyrazin-2-yl]amino}methylene)isoquinoline-1,3(2H,4H)-dione] | 4.74 | 5.02 | 5.52 | 4.86 | 5.51 | 4.80 | 4.96 | 238 to 239 °C |
| CN1CCN(c2cnc(N/C=C3\C(=O)NC(=O)c4ccc(-c5ccoc5)cc43)cn2)CC1 [Example 508, (4Z)-6-(3-Furyl)-4-({[5-(4-methylpiperazin-1-yl)pyrazin-2-yl]amino}methylene)isoquinoline-1,3(2H,4H)-dione] | 5.96 | 5.52 | 5.66 | 5.89 | 6.02 | < 4.30 | 5.89 | 226 to 227 °C |
